The text below walks through data of US4883801A, “Xanthine derivative pest control agents” (priority 1986, dated 1989).

“Also recorded” adds a separate entry of the source.

The test system of experiment [1] is hornworm nerve cord PDE (cyclic AMP phosphodiesterase). Put plainly: Inhibition of cyclic AMP phosphodiesterase activity in homogenates of tobacco hornworm nerve cord. It is filed as biochemical, Manduca sexta. The settings on record: for activity of structurally similar compounds tested as described in Example 46: Example 47. Here is the method: Nerve cord was dissected from 40-60 mm long M. sexta larvae, cleaned, and homogenized (2 mg/ml) in 6 Mm Tris-maleate, pH 7.4. PDE activity was measured (4 min. incubation at 30° C.) in an assay system (0.1 ml) containing 80 mM Tris-maleate, pH 7.4; 6 mM Mg--SO4; 10^-7 M^3 H-cyclic AMP; and tissue homogenate (0.02 ml). Nerve cord was evaluated in the presence and the absence of the xanthine derivative. For purposes of the evaluation, the rate of formation of ^3 H-5' AMP was measured using the technique described in Filburn, C. […] The values shown in FIG. 1D are the mean (±SEM) of three separate experiments.

The test system of experiment [2] is cockroach brain adenylate cyclase. The following applies: in vitro; cited from earlier work.
Experiment [3] concerns cockroach brain phosphodiesterase. The settings on record: in vitro; cited from earlier work.
Experiment [4] concerns Manduca sexta (tobacco hornworm) larvae. Nature of the experiment: Antifeeding test: tomato leaves sprayed with compound, tobacco hornworm larvae. The settings on record: for Vmax (percent inhibition of feeding at the highest dose used): highest dose usually a 3% spray solution; for EC50 (spray concentration required to cause 50% inhibition of feeding): spray on tomato leaves, calculated from dose-response curves, Manduca sexta 6 per leaf. The format is in vivo.

Another experiment addresses adenosine receptor. The following applies: Daly 1982; Bruns et al.; cited from earlier work.

As for `Cn1c(=O)c2ncn(C)c2n(C)c1=O` [1,3,9-trimethyl-xanthine], the “activity of structurally similar compounds tested as described in Example 46” value in experiment [1] is listed as “only weakly active”.

As for `CNC(=O)O/N=C/C(C)(C)SC` [Aldicarb], in experiment [2], the “direct effect on cockroach brain adenylate cyclase (in words)” value (shortened to “direct effect”) is on record as “essentially no direct effects”. As to `C=CCC1=C(C)C(OC(=O)C2C(C=C(C)C)C2(C)C)CC1=O` (stereo not drawn) [Allethrin], the “direct effect” value in experiment [2] is given as “essentially no direct effects”. As for `Clc1ccc(C(c2ccc(Cl)cc2)C(Cl)(Cl)Cl)cc1` [DDT], the “effect on cockroach brain phosphodiesterase (in words)” value in experiment [3] is listed as “activators of phosphodiesterase”. Moreover, the “direct effect” value in experiment [2] is “essentially no direct effects”.

As to `ClC1=C(Cl)[C@]2(Cl)[C@@H]3[C@@H]4C[C@@H]([C@H]5O[C@@H]45)[C@@H]3[C@@]1(Cl)C2(Cl)Cl` [Dieldrin], the “effect on cockroach brain phosphodiesterase (in words)” value in experiment [3] was “activators of phosphodiesterase”. In experiment [2], the “direct effect” value was “essentially no direct effects”.

As to `Cc1cc(OC(=O)N(C)C)nn1C(=O)N(C)C` [Dimetilan], the “direct effect” value in experiment [2] is listed as “essentially no direct effects”. Take `CCn1c(=O)c2[nH]cnc2n(CC)c1=O` [Example 16, 1,3-diethyl-xanthine]: in experiment [4], the “Vmax (percent inhibition of feeding at the highest dose used)” value came out at 98% and the “EC50 (spray concentration required to cause 50% inhibition of feeding)” value is listed as 0.33 % (gm/100 ml). Regarding `CCCn1c(=O)c2[nH]cnc2n(CCC)c1=O` [Example 17, 1,3-dipropyl-xanthine], in experiment [4], the “Vmax (percent inhibition of feeding at the highest dose used)” value was 95% and the “EC50 (spray concentration required to cause 50% inhibition of feeding)” value was 0.035 % (gm/100 ml). For `C=CCn1c(=O)c2[nH]cnc2n(CC=C)c1=O` [Example 18, 1,3-diallyl-xanthine], in experiment [4], the “Vmax (percent inhibition of feeding at the highest dose used)” value turned out to be 99% and the “EC50 (spray concentration required to cause 50% inhibition of feeding)” value is 0.35 % (gm/100 ml). Taken in the same sequence, the figures for `O=c1c2[nH]cnc2n(Cc2ccccc2)c(=O)n1Cc1ccccc1` [Example 19, 1,3-dibenzyl-xanthine] were 70% and 0.45 % (gm/100 ml). Taken in the same sequence, the figures for `CC(C)CCn1c(=O)c2[nH]cnc2n(CC(C)C)c1=O` [Example 21, 1-isoamyl,3-isobutyl-xanthine] were above 52% and 0.2 % (gm/100 ml). Regarding `CCn1c(=O)n(CCc2ccccc2)c(=O)c2[nH]cnc21` [Example 22, 1-phenethyl,3-ethyl-xanthine], in experiment [4], the “Vmax (percent inhibition of feeding at the highest dose used)” value worked out at 96% and the “EC50 (spray concentration required to cause 50% inhibition of feeding)” value is listed as 0.6 % (gm/100 ml).

`Cn1c(=O)c2c(ncn2CCCl)n(C)c1=O` [Example 24, 1,3-dimethyl,7-(2-chlorethyl)-xanthine]: in experiment [4], the “Vmax (percent inhibition of feeding at the highest dose used)” value was found to be 95% and the “EC50 (spray concentration required to cause 50% inhibition of feeding)” value is recorded as 0.3 % (gm/100 ml). For the compound `CC(O)Cn1cnc2c1c(=O)n(C)c(=O)n2C` (stereo not drawn) [Example 25, 1,3-dimethyl,7-(beta-hydroxypropyl-xanthine)], in experiment [4], the “Vmax (percent inhibition of feeding at the highest dose used)” value was 95% and the “EC50 (spray concentration required to cause 50% inhibition of feeding)” value is 1.5 % (gm/100 ml). For the compound `COc1nc2c(c(=O)n(C)c(=O)n2C)n1C` [Example 26, 1,3,7-trimethyl,8-methoxy-xanthine], in experiment [4], the “Vmax (percent inhibition of feeding at the highest dose used)” value is 86% and the “EC50 (spray concentration required to cause 50% inhibition of feeding)” value was 0.5 % (gm/100 ml). As to `Cn1cnc2c1c(=O)[nH]c(=O)n2C` [Example 27, 3,7-dimethyl-xanthine (theobromine), reference compound], in experiment [4], the “Vmax (percent inhibition of feeding at the highest dose used)” value is 87% and the “EC50 (spray concentration required to cause 50% inhibition of feeding)” value is 1.0 % (gm/100 ml). Turning to `CCCn1c(=O)c2c(ncn2C)n(CCC)c1=O` [Example 28, 1,3-dipropyl,7-methyl-xanthine], in experiment [4], the “Vmax (percent inhibition of feeding at the highest dose used)” value was determined as 84% and the “EC50 (spray concentration required to cause 50% inhibition of feeding)” value was 0.48 % (gm/100 ml). On to `CCCn1c(=O)c2c(ncn2CCC)n(CCC)c1=O` [Example 29, 1,3,7-tripropyl-xanthine], for which, in experiment [4], the “Vmax (percent inhibition of feeding at the highest dose used)” value came to 95% and the “EC50 (spray concentration required to cause 50% inhibition of feeding)” value is 0.19 % (gm/100 ml). For `CCCn1c(=O)c2c(ncn2Cc2ccccc2)n(CCC)c1=O` [Example 30, 1,3-dipropyl,7-benzyl-xanthine], in experiment [4], the “Vmax (percent inhibition of feeding at the highest dose used)” value came out at 96% and the “EC50 (spray concentration required to cause 50% inhibition of feeding)” value was 0.08 % (gm/100 ml).

As for `CCCCn1c(=O)c2[nH]cnc2n(CCCC)c1=O` [Example 31, 1,3-dibutyl-xanthine], in experiment [4], the “Vmax (percent inhibition of feeding at the highest dose used)” value turned out to be 90% and the “EC50 (spray concentration required to cause 50% inhibition of feeding)” value was 0.044 % (gm/100 ml).

For the compound `O=c1[nH]c(=O)c2[nH]cnc2[nH]1` [Example 32, xanthine], in experiment [4], the “Vmax (percent inhibition of feeding at the highest dose used)” value is 0% and the “EC50 (spray concentration required to cause 50% inhibition of feeding)” value is recorded as > 3 % (gm/100 ml). Consider `Cn1c(=O)[nH]c2nc[nH]c2c1=O` [Example 33, 1-methyl-xanthine], for which, in experiment [4], the “Vmax (percent inhibition of feeding at the highest dose used)” value is recorded as 21% and the “EC50 (spray concentration required to cause 50% inhibition of feeding)” value is > 3 % (gm/100 ml). For the compound `Cn1c(=O)[nH]c(=O)c2[nH]cnc21` [Example 34, 3-methyl-xanthine], in experiment [4], the “Vmax (percent inhibition of feeding at the highest dose used)” value came out at 8% and the “EC50 (spray concentration required to cause 50% inhibition of feeding)” value was > 3 % (gm/100 ml). As for `Cn1cnc2[nH]c(=O)[nH]c(=O)c21` [Example 35, 7-methyl-xanthine], in experiment [4], the “Vmax (percent inhibition of feeding at the highest dose used)” value is given as 29% and the “EC50 (spray concentration required to cause 50% inhibition of feeding)” value is given as > 3 % (gm/100 ml). On to `Cc1nc2[nH]c(=O)[nH]c(=O)c2[nH]1` [Example 36, 8-methyl-xanthine], for which, in experiment [4], the “Vmax (percent inhibition of feeding at the highest dose used)” value amounted to 35% and the “EC50 (spray concentration required to cause 50% inhibition of feeding)” value is on record as > 3 % (gm/100 ml). On to `Cn1c(=O)[nH]c2ncn(C)c2c1=O` [Example 38, 1,7-dimethyl-xanthine], for which, in experiment [4], the “Vmax (percent inhibition of feeding at the highest dose used)” value amounted to 30% and the “EC50 (spray concentration required to cause 50% inhibition of feeding)” value was > 3 % (gm/100 ml). Further, the “activity of structurally similar compounds tested as described in Example 46” value in experiment [1] was “inactive”. Turning to `Cn1c(=O)[nH]c2[nH]c(=O)n(C)c2c1=O` [Example 39, 1,7-dimethyl-uric acid], in experiment [4], the “Vmax (percent inhibition of feeding at the highest dose used)” value was determined as 30% and the “EC50 (spray concentration required to cause 50% inhibition of feeding)” value is > 3 % (gm/100 ml).

As to `Cn1c(=O)c2c([nH]c(=O)n2C)n(C)c1=O` [Example 40, 1,3,7-trimethyl-uric acid], in experiment [4], the “Vmax (percent inhibition of feeding at the highest dose used)” value is given as 40% and the “EC50 (spray concentration required to cause 50% inhibition of feeding)” value was > 3 % (gm/100 ml). As to `CC(=O)n1cnc2c1c(=O)n(C)c(=O)n2C` [Example 41, 1,3-dimethyl-7-acetyl-xanthine], in experiment [4], the “Vmax (percent inhibition of feeding at the highest dose used)” value came to 18% and the “EC50 (spray concentration required to cause 50% inhibition of feeding)” value is listed as > 3 % (gm/100 ml). Consider `Cn1c(=O)c2[nH]c(-c3ccccc3)nc2n(C)c1=O` [Example 42, 1,3-dimethyl-8-phenyl-xanthine], for which the “antifeeding effect (in words)” value in experiment [4] (FIG. 1C, listed as 8-phenyltheophylline) is listed as “relatively weak effects; also recorded: little antifeeding effect”. Besides, in experiment [4], the “Vmax (percent inhibition of feeding at the highest dose used)” value stood at 38% and the “EC50 (spray concentration required to cause 50% inhibition of feeding)” value is > 3 % (gm/100 ml). The “PDE inhibition (in words)” value in experiment [1] (FIG. 1D) is recorded as “very weak PDE inhibitor”. Moreover, the Ki at adenosine receptor is 0.12 to 1 µM. For the compound `CCCn1c(=O)c2[nH]c(-c3ccccc3)nc2n(CCC)c1=O` [Example 43, 1,3-dipropyl-8-phenyl-xanthine], in experiment [4], the “Vmax (percent inhibition of feeding at the highest dose used)” value was found to be 0% and the “EC50 (spray concentration required to cause 50% inhibition of feeding)” value is reported as > 3 % (gm/100 ml). With `Cn1c(=O)c2c(nc(Cl)n2C)n(C)c1=O` [Example 44, 1,3,7-trimethyl-8-chloro-xanthine], in experiment [4], the “Vmax (percent inhibition of feeding at the highest dose used)” value is on record as 40% and the “EC50 (spray concentration required to cause 50% inhibition of feeding)” value is on record as > 3 % (gm/100 ml). Consider `Cn1c(=O)c2ncn(C)c2n(C)c1=O` [Example 45, 1,3,9-trimethyl-xanthine], for which, in experiment [4] (Table 1 grouping), the “pesticidal and pestistatic activity class (active / inactive / weakly active)” value is “weakly active”. For the same compound, in experiment [4], the “Vmax (percent inhibition of feeding at the highest dose used)” value amounted to 50% and the “EC50 (spray concentration required to cause 50% inhibition of feeding)” value is > 3 % (gm/100 ml). In the case of `Cc1ccc2nc3sc(=O)sc3nc2c1` [Oxythioquinox], in experiment [3], the “effect on cockroach brain phosphodiesterase (in words)” value is recorded as “most potent inhibitor” and the “inhibition of cockroach brain phosphodiesterase” value is reported as “over 80%”. In addition, the “direct effect” value in experiment [2] is listed as “essentially no direct effects”.

For `C=C(C)[C@H]1Cc2c(ccc3c2O[C@@H]2COc4cc(OC)c(OC)cc4[C@@H]2C3=O)O1` [Rotenone], the “direct effect” value in experiment [2] is recorded as “essentially no direct effects”. As to `CCOP(=O)(OCC)OP(=O)(OCC)OCC` [TEPP], the “direct effect” value in experiment [2] was “essentially no direct effects”. For the compound `COP(=O)(OC)Oc1ccc([N+](=O)[O-])cc1` [methylparaoxon], the “direct effect” value in experiment [2] is “essentially no direct effects”. Take `COc1ccc(Cc2nccc3cc(OC)c(OC)cc23)cc1OC` [papavarine, reference compound]: the “EC50, ability of Manducca to feed” value in experiment [4] (in vivo) is 0.1 % spray. In addition, the Ki in experiment [1] (read-out: Ki, insect PDE) turned out to be 40 µM.
